In publication PMC5391474, “Investigation of the Role of Protein Kinase D in Human Rhinovirus Replication” (Journal of Virology, 2017) one finds inhibition data, which are given here for one molecule.

Experiment in all cases: biochemical
Common to all, as to design: in vitro kinase selectivity panel, protein and lipid kinases, single concentration, ATP at Km
Conditions in all cases: ATP at Km

The target of one assay is HIPK2(h) (Homo sapiens, UniProt Q9H2X6). In short, it runs like this: (§1)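 Single-point screen against a protein and lipid kinase panel: inhibitor at 1 μM. ATP concentration for every kinase equivalent to its Km.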
A further assay concerns the target T1, LKB1(h) (Homo sapiens, UniProt Q15831).
T1 construct: gene STK11
Put shortly: as §1

Another assay deals with EGFR(L861Q)(h) (Homo sapiens, UniProt P00533, L861Q). In short, it runs like this:
as §1

The target of another assay is T2, PRK2(h) (Homo sapiens, UniProt Q16513).
T2 construct: gene PKN2
In short, it runs like this: as §1

A further assay addresses CDK2/cyclinA(h) (Homo sapiens, UniProt P24941). In short, it runs like this: as §1
A further assay concerns the target T3, CaMKIV(h) (Homo sapiens, UniProt Q16566).
T3 construct: gene CAMK4
In short, it runs like this:
as §1

The next assay has as its target Fer(h) (Homo sapiens, UniProt P16591). In short, it runs like this:
as §1

The next assay addresses T4, IR(h) (Homo sapiens, UniProt P06213).
T4 construct: gene INSR
Put shortly:
as §1

Another assay addresses T5, cKit(D816H)(h) (Homo sapiens, UniProt P10721, D816H).
T5 construct: gene KIT
In short, it runs like this:
as §1

A further assay addresses T6, MST2(h) (Homo sapiens, UniProt Q13188).
T6 construct: gene STK3
Put shortly: as §1

The target in another assay is T7, PKCζ(h) (Homo sapiens, UniProt Q05513).
T7 construct: gene PRKCZ
T7 sequence (Q05513 whole entry): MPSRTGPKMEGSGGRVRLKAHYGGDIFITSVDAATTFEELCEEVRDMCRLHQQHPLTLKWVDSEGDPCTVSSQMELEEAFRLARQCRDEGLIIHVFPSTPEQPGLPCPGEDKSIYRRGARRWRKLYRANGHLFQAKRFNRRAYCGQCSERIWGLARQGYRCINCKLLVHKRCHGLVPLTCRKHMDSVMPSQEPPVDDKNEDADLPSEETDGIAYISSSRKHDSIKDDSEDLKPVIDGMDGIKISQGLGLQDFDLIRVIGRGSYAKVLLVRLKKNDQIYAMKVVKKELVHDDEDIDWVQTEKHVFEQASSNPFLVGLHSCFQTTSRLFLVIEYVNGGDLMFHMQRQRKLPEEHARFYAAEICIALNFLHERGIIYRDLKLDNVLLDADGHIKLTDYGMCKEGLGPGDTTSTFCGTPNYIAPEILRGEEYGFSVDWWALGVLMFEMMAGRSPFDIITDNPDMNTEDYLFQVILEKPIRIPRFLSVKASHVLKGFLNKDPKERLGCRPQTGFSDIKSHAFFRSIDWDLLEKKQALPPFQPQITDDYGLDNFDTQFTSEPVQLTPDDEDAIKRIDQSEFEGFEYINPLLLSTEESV
In short, it runs like this:
as §1

Another assay concerns the target T8, Fms(h) (Homo sapiens, UniProt P07333).
T8 construct: gene CSF1R
In short, it runs like this: as §1

The target in a further assay is DGKZ (Homo sapiens, UniProt Q13574). In short, it runs like this: as §1
DGKZ, sequence (Q13574 whole entry): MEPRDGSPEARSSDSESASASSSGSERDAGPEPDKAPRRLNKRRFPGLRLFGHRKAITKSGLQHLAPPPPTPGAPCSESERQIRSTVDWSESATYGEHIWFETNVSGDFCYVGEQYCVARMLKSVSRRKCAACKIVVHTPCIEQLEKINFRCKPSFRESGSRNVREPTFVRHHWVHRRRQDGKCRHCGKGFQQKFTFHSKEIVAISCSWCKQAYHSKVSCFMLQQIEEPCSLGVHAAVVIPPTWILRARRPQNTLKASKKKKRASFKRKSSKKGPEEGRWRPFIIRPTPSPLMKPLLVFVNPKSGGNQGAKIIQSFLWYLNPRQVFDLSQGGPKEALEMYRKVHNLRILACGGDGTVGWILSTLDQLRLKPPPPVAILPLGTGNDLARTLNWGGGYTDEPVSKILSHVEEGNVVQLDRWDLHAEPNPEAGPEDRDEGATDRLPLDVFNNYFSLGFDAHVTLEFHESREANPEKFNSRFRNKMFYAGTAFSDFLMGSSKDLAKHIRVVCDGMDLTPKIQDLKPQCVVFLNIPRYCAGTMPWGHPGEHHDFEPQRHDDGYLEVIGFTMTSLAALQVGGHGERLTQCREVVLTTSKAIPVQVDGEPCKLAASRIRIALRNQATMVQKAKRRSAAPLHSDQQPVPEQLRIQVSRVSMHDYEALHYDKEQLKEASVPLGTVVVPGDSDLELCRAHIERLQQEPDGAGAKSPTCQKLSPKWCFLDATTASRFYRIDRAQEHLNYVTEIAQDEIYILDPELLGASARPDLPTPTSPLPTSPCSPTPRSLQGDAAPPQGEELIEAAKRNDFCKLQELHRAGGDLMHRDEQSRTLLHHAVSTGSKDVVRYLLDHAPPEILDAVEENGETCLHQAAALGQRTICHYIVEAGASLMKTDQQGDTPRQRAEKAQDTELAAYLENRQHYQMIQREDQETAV
The next assay deals with T9, PDGFRβ(h) (Homo sapiens, UniProt P09619).
T9 construct: gene PDGFRB
In short, it runs like this:
as §1

The target in a further assay is SPHK2 (Homo sapiens, UniProt Q9NRA0). Put shortly: as §1
SPHK2, sequence (Q9NRA0 whole entry): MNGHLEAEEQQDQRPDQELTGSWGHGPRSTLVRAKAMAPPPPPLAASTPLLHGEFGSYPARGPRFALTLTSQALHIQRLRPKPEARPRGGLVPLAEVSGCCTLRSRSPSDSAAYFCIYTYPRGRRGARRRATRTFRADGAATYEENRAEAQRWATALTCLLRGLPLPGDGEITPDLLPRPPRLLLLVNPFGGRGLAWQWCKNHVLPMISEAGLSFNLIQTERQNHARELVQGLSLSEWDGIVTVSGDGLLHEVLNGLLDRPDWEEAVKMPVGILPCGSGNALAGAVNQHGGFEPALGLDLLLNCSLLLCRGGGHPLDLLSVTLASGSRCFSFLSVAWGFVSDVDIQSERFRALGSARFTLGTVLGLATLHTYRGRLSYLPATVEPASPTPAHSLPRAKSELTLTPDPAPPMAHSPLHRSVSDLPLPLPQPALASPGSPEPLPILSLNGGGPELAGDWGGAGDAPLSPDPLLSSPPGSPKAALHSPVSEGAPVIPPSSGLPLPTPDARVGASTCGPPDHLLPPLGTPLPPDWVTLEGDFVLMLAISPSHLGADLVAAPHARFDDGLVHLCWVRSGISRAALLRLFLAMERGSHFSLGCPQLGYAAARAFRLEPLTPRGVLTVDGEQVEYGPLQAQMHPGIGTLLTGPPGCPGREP
The next assay has as its target PIK3CG (Homo sapiens, UniProt P48736). Put shortly: as §1
Another assay has as its target PIP4K2A (Homo sapiens, UniProt P48426). Put shortly:
as §1

Another assay addresses T10, FAK(h) (Homo sapiens, UniProt Q05397).
T10 construct: gene PTK2
Put shortly: as §1

One may read the inhibition as the drop in the measured response relative to a control, in per cent.

T6 sequence (Q13188 whole entry): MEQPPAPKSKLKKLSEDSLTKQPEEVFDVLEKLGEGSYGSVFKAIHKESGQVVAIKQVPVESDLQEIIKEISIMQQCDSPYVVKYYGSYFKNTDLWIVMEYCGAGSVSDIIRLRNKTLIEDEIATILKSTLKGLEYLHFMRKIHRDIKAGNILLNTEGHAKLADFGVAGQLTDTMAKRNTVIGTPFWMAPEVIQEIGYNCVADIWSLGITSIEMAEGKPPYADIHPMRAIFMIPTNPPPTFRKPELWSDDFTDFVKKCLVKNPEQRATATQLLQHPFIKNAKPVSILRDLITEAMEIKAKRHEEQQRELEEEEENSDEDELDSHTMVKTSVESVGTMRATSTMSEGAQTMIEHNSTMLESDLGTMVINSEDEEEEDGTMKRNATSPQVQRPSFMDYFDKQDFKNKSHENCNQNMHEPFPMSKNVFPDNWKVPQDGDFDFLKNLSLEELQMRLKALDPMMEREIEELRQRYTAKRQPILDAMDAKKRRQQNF
T4 sequence (P06213 whole entry): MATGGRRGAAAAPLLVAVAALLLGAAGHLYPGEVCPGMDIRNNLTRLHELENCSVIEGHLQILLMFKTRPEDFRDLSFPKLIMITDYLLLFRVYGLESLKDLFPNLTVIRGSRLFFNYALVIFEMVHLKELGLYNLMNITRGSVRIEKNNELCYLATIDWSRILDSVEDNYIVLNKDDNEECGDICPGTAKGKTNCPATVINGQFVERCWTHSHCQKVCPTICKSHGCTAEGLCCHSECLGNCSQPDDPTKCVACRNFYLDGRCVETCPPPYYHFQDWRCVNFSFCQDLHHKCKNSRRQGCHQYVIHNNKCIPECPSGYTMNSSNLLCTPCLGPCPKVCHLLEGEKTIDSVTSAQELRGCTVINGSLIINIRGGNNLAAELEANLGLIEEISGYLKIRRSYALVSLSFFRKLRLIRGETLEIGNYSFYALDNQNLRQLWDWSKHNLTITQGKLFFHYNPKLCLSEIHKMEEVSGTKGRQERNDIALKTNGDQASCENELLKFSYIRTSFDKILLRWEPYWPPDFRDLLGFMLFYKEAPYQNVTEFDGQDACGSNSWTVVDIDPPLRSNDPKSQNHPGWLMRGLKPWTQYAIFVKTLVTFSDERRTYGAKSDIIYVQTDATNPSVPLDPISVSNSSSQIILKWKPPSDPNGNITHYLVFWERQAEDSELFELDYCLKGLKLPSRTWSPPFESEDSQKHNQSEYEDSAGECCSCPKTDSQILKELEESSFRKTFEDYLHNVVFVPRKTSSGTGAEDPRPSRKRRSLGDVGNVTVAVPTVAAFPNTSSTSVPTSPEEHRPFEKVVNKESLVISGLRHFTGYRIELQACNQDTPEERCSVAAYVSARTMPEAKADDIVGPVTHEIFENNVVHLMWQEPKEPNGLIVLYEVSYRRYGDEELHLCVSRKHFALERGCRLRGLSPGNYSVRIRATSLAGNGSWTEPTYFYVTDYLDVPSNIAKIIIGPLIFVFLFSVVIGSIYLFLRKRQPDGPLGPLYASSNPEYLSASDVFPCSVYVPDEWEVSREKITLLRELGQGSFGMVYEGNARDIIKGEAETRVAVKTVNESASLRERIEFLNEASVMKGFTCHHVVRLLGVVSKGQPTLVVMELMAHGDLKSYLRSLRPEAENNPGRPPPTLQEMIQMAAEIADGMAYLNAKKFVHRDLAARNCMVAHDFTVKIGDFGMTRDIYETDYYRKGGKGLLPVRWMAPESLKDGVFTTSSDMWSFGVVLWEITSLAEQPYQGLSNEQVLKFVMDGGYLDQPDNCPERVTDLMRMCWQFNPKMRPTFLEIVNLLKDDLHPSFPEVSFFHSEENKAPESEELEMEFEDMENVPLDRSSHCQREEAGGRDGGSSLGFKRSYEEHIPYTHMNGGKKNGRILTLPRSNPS
T3 sequence (Q16566 whole entry): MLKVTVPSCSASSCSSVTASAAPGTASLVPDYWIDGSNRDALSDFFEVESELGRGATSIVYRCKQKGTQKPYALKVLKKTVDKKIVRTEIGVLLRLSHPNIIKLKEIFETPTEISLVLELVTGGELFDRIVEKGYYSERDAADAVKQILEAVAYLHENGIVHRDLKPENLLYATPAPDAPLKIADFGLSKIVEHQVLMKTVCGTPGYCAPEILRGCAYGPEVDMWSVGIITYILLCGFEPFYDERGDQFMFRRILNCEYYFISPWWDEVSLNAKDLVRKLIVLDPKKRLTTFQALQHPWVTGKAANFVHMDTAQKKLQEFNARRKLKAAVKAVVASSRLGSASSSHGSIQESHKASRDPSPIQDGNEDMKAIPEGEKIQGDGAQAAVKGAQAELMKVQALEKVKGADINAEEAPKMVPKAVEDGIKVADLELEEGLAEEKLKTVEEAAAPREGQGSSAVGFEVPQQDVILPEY
PIP4K2A, sequence (P48426 whole entry): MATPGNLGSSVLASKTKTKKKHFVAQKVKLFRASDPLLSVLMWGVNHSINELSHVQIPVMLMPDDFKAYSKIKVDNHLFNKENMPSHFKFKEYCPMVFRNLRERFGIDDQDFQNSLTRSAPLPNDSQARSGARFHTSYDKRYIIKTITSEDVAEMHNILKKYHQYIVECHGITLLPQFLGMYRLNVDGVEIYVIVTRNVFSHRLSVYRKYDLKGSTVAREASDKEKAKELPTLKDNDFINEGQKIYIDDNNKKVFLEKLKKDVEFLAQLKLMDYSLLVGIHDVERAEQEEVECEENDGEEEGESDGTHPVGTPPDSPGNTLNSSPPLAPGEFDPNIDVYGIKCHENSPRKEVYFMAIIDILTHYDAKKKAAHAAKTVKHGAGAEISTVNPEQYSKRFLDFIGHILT

Turning to `CC[C@@H](N)CNc1ccnc(-c2cc(-c3cnn(C)c3)ccc2O)n1` [CRT0066101], the inhibition at 1 µM on HIPK2(h) is 55%; against LKB1(h), -13%; on EGFR(L861Q)(h), 10%; against PRK2(h), 77%; at CDK2/cyclinA(h) it was 53%; at CaMKIV(h), 26%. Further, the inhibition at 1 µM against Fer(h) is -25%; against IR(h) it was -22%; against cKit(D816H)(h) it was 51%; against MST2(h) it was 20%; at PKCζ(h), -8%; against Fms(h), 12%. Besides, the inhibition at 1 µM at DGKZ was -1%; at PDGFRβ(h), -1%; at SPHK2, 20%; against PIK3CG it was 29%; against PIP4K2A, -22%; at FAK(h), -11%.
